pIC50: −log10 of the molar value.
What was measured:
[1] = set-up: method as in PMID 27498123, PMID 33638308; details: t = 60 min; cited from earlier work
TrkA [2] = target: T1, TrkA (Rattus norvegicus, UniProt P35739); set-up: method as in PMID 27618740; details: cited from earlier work
T1 construct: we used PC12 cells, a cell line that express TrkA and p75^NTR; host or cells: PC12

Erk1/2 [3] = test system: Erk1/2; set-up: method as in PMID 27618740; details: cited from earlier work
γ-secretase = γ-secretase activity / APP processing in U2OS APP-C99-tGFP cells; format: cell-based; details: 3 μM, positive control
Procedure: PC12 and HEK293T cells were obtained from LGC Promochem GmbH (Teddington, UK) and cultured under the conditions specified by the manufacturer. NIH3T3 cells were stably transfected with human TrkB plasmid. PC12 cells were grown in DMEM medium (11965084, Gibco, Grand Island, NY, USA) containing 10% Horse Serum (16050122, Gibco, Grand Island, NY, USA), 5% Fetal Bovine Serum (10270106, Gibco, Grand Island, NY, USA), 100 units/mL Penicillin and 0.1 mg/mL Streptomycin (15140122, Gibco, Grand Island, NY, USA) at 5% CO2 and 37 °C. Cells were used between passages 5–20. HEK293T and NIH3T3 cells were grown in the same medium as PC12 cells supplemented with 10% Fetal Bovine Serum and lacking Horse Serum. For transient transfection of HEK293T cells, lipofectamine was used and cells were transfected with human p75^NTR and Traf6 plasmids. To determine the intracellular activity of endogenous secretases, we tagged (tGFP) a truncated mutant (Tm) of APP containing the original amino acids sequence from M516 to N773. This Tm conserves the secretases cleavage sites, clathrin binding site, tau protein binding site, collagen binding site and some glycosylation sites critical for protein localization and intracellular trafficking. The cDNA of the TmAPP gene was amplified by PCR and subcloned into pturbo-GFP vector. The construction was transfected into U2OS cells (ATCC Cat Number HTB-96) using Lipofectamine LTX (Thermo Fisher Scientific, Waltham, MA, USA). After 48 h, individual cells were plated in MTP96 plates using F.SIGHT (CYTENA GmbH, Freiburg, Germany), and cultured in complete medium containing 250 μg/mL G418 for selection. The selection medium was changed every two to three days. The cells were allowed to grow for 3 to 4 weeks, after which clones were isolated for further analysis. Resistant clones were checked by RT-PCR and epifluorescence microscopy.
The Alzheimer’s Disease (AD) phenotype is partly attributed to the toxic effects caused by oligmeric Aβ, which results in reduced neuronal trophic support, caused by deregulation of neurotrophic signaling. It is therefore reasonable that a small molecule that can selectively activate TrkA signaling and promote neuronal survival could alleviate the detrimental effects caused by toxic Aβ oligomers, especially during the early phases of the disease or modulate APP misprocessing and therefore reduce the production of the toxic Aβ. The U2OS stably expressing APP-C99-tGFP cell line was used in order to monitor γ-secretase activity, the process responsible for Aβ production from APP. The assay achieves this by measuring the levels of fluorescent APP-C99 construct produced by β-secretase activity. When γ-secretase is active, the construct is cleaved, leading to Aβ production. […] Therefore, higher fluorescence levels correspond to decreased γ-secretase activity and Aβ aggregate formation by extension. […] In addition, in order to investigate whether ENT-A013 can protect cells against Aβ-induced toxicity we isolated neurons from the hippocampus of E17.5 mouse embryos, a brain area that is heavily affected in AD. Neurons were left in culture for 16–18 DIV and then were treated with oligomeric Aβ and ENT-A013 for 48 h. Subsequently, cells were fixed and cell death was assessed using TUNEL assay.
(A,B) Primary hippocampal neurons were treated for 48 h with oligomeric Aβ in the presence of ENT-A013 and TUNEL assay was used to quantify cell death. Representative images from 3 independent experiments. Data are shown as ±SEM. One-way ANOVA, Tukey’s Test correction: ** p < 0.01; *** p < 0.001. (C) Aggregate formation on untreated cells, treated with DAPT inhibitor of γ-secretase or with compound ENT-A013. […] Aggregate formation was quantified with a BD Pathway 855 High-Content Bioimager and Attonvision software.

TrkA [4] = target: T1, TrkA; assay: TrkA phosphorylation in PC12 cells (IP with TrkA antibody, Western blot against phosphorylated Tyrosine); format: cell-based; details: for time TrkA phosphorylation is sustained after treatment: PC12 cells, 10, 30 or 60′ treatment
Procedure: For immunoprecipitation experiments PC12 or HEK293T, cells were used when at 70–80% confluent. […] Cells were then lysed in Pierce™ IP Lysis Buffer (87788, Thermo Fischer Scientific, Waltham, MA, USA) containing proteases (539138, Calbiochem, Darmstadt, Germany) and phosphatase inhibitors (524629, Calbiochem, Darmstadt, Germany). Lysates were then immunoprecipitated overnight at 4 °C with TrkA antibody (1:100, 06-574, Sigma-Aldrich, St. Louis, MO, USA) (Table S1) or p75^NTR antibody (1:100, ab6172, Abcam plc., Cambridge, UK) followed by 4 h incubation with protein G-plus agarose beads (sc-2002, Santa Cruz Biotechnology, Inc., Dallas, TX, USA). Beads were then collected, washed 3X with lysis buffer, resuspended in SDS loading buffer and subjected to Western blot against phosphorylated Tyrosine (1:1000, BAM1676, R&D Systems, Inc., Minneapolis, MN, USA) or Traf6 antibody (1:2000, ab33915, Abcam, plc., Cambridge, UK). Whole cell lysates were subjected to Western blot against TrkA (1:1000, 06-574, Sigma-Aldrich, St. Louis, MO, USA), phosphorylated TrkB (1:1000, ABN1381, Sigma-Aldrich, St. Louis, MO, USA), phosphorylated TrkC (1:1000, STJ90960, St John’s Laboratory, Ltd., London, UK), TrkB (1:1000, 07-225-I, Sigma-Aldrich, St. Louis, MO, USA), TrkC (1:1000, C44H5, Cell Signaling Technology, Danvers, MA, USA), p75 (1:1000, 839701, Biolegend, Inc., San Diego, CA, USA), Traf6 (1:2000, ab33915, Abcam, plc., Cambridge, UK) phosphorylated Akt (1:1000, 9721S, Cell Signaling Technology, Danvers, MA, USA), phosphorylated Erk1/2 (1:1000, 9101S, Cell Signaling Technology, Danvers, MA, USA), total Akt (1:1000, 4691S Cell Signaling Technology, Danvers, MA, USA) and total Erk1/2 (1:1000, 4695S, Cell Signaling Technology, Danvers, MA, USA).

PC12 cells = assay: CellTox assay, serum deprivation-induced cell death; format: cell-based; details: serum deprivation; for CellTox positive cells normalized to total number of cells: 24 h, 500 nM; for pIC50: CellTox, read-out: IC50 (anti-apoptotic dose–response)
Procedure: CellTox assay (G8742, Promega Corporation, Maddison, WI, USA) was used to assess survival of PC12 cells under serum deprivation conditions. PC12 cells were plated in 96-well plates, starved of serum for 4 h and subsequently treated with NGF (100 ng/mL) or ENT-A013 (500 nM) in the presence or absence of TrkA inhibitor GW441756 (20 μM, G-190, Alomone labs, Jerusalem, Israel) for 24 h. CellTox assay reagents and Hoescht (1:10,000, H3570, Invitrogen, Waltham, MA, USA) were added to each well for 30′ and cells were then imaged with a Zeiss AXIO Vert A1 fluorescent microscope (Zeiss, Jena, Germany). CellTox positive cells were normalized to total number of cells for each image.

Erk1/2 [5] = assay: Erk1/2 phosphorylation in PC12 cells (Western blot); format: cell-based; details: for Erk1/2 phosphorylation: 500 nM, 30′
Procedure: For immunoprecipitation experiments PC12 or HEK293T, cells were used when at 70–80% confluent. Cells were starved of serum for 4 h and subsequently treated with 100 ng/mL NGF or 500 nM of compound ENT-A013 for 30′. Cells were then lysed in Pierce™ IP Lysis Buffer (87788, Thermo Fischer Scientific, Waltham, MA, USA) containing proteases (539138, Calbiochem, Darmstadt, Germany) and phosphatase inhibitors (524629, Calbiochem, Darmstadt, Germany). Lysates were then immunoprecipitated overnight at 4 °C with TrkA antibody (1:100, 06-574, Sigma-Aldrich, St. Louis, MO, USA) (Table S1) or p75^NTR antibody (1:100, ab6172, Abcam plc., Cambridge, UK) followed by 4 h incubation with protein G-plus agarose beads (sc-2002, Santa Cruz Biotechnology, Inc., Dallas, TX, USA). Beads were then collected, washed 3X with lysis buffer, resuspended in SDS loading buffer and subjected to Western blot against phosphorylated Tyrosine (1:1000, BAM1676, R&D Systems, Inc., Minneapolis, MN, USA) or Traf6 antibody (1:2000, ab33915, Abcam, plc., Cambridge, UK). Whole cell lysates were subjected to Western blot against TrkA (1:1000, 06-574, Sigma-Aldrich, St. Louis, MO, USA), phosphorylated TrkB (1:1000, ABN1381, Sigma-Aldrich, St. Louis, MO, USA), phosphorylated TrkC (1:1000, STJ90960, St John’s Laboratory, Ltd., London, UK), TrkB (1:1000, 07-225-I, Sigma-Aldrich, St. Louis, MO, USA), TrkC (1:1000, C44H5, Cell Signaling Technology, Danvers, MA, USA), p75 (1:1000, 839701, Biolegend, Inc., San Diego, CA, USA), Traf6 (1:2000, ab33915, Abcam, plc., Cambridge, UK) phosphorylated Akt (1:1000, 9721S, Cell Signaling Technology, Danvers, MA, USA), phosphorylated Erk1/2 (1:1000, 9101S, Cell Signaling Technology, Danvers, MA, USA), total Akt (1:1000, 4691S Cell Signaling Technology, Danvers, MA, USA) and total Erk1/2 (1:1000, 4695S, Cell Signaling Technology, Danvers, MA, USA).

T1 sequence (P35739 33-799): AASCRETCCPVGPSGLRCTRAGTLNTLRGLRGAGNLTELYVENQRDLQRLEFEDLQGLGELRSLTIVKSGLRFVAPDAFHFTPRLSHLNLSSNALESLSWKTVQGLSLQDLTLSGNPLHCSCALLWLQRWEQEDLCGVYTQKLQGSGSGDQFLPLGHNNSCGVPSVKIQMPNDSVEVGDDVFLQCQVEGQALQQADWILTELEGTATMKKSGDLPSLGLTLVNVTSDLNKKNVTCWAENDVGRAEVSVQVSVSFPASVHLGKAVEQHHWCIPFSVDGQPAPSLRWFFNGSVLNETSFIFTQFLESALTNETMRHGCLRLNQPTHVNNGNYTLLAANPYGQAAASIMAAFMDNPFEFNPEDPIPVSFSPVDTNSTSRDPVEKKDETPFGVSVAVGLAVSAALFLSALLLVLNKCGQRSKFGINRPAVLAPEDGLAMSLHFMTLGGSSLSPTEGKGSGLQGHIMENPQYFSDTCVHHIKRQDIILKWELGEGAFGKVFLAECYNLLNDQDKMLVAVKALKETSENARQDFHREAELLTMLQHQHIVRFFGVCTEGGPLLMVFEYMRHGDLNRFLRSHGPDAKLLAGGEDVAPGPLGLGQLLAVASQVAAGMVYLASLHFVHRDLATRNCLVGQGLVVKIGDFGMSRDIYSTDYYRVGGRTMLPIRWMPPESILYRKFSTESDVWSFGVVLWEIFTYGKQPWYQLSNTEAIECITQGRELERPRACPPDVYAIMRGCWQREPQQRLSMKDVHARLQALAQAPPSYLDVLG

C[C@]12CC[C@H](O)CC1=CC[C@@H]1[C@@H]2CC[C@@]2(C)[C@H]1CC[C@@]21O[C@@H]1CO [BNN27]
residual of time zero [1]: 70%
time TrkA is phosphorylated after treatment (TrkA [2]): up to 6 hr
time beyond which Erk1/2 is not activated (Erk1/2 [3]): ≤ 15 min

C[C@H](NC(=O)Cc1cc(F)cc(F)c1)C(=O)N[C@H](C(=O)OC(C)(C)C)c1ccccc1 [DAPT, reference compound]
fluorescence levels (APP-C99-tGFP, in words) (γ-secretase): Fluorescence levels increased

CC12CCC(O)CC1=CCC1C2CCC2(C)C1CCC21CC1C=CBr (stereo not drawn) [ENT-A013E]
time TrkA phosphorylation is sustained after treatment (TrkA [4]): up to 1 hr
CellTox positive cells normalized to total number of cells (PC12 cells): 0.07 ± 0.02
pIC50 (PC12 cells): 6.55
time Erk1/2 phosphorylation is sustained after treatment (Erk1/2 [5]): up to 1 hr
Erk1/2 phosphorylation (Erk1/2 [5]): 7.87 ± 2.23 % of control FC

CC12CCC(O)CC1=CCC1C2CCC2(C)C1CCC21CC1C=CBr (stereo not drawn) [ENT-A013Z]
time TrkA phosphorylation is sustained after treatment (TrkA [4]): up to 1 hr
CellTox positive cells normalized to total number of cells (PC12 cells): 0.08 ± 0.02
pIC50 (PC12 cells): 6.56
time Erk1/2 phosphorylation is sustained after treatment (Erk1/2 [5]): up to 1 hr
Erk1/2 phosphorylation (Erk1/2 [5]): 4.13 ± 1.46 % of control FC

NGF: Nerve Growth Factor, neurotrophin acting through TrkA and p75NTR receptors
TrkA phosphorylation (TrkA [4]; PC12 cells, compound 500 nM or NGF 100 ng/mL, 30′): 2.30 ± 0.62 % of control FC

— publication PMC8945229, “Development and Biological Characterization of a Novel Selective TrkA Agonist with Neuroprotective Properties against Amyloid Toxicity” (Biomedicines, 2022)
